Where a name gives a salt, the structure may show the parent alone.
What was measured:
[1] = molecular target: T1, Human CD40-his (Homo sapiens, UniProt P25942); assay: Biacore surface plasmon resonance affinity and binding kinetics; settings: for Kd: dissociation rate
T1 construct: His; purchased Acro biosystems CD0-H5228
Source text: (§1) The affinity and binding kinetics of the anti-CD40 antibody in the present application were characterized by a Biacore T200 system (GE Healthcare, Pittsburgh, PA, USA).
(§2) Briefly, a goat anti-human IgG (GE Healthcare, Cat. No. BR100839, human antibody capture kit) was covalently linked to a CM5 chip (GE Healthcare, Cat. No. BR100530, carboxymethylated dextran-coated chip) via the primary amine group using a standard amine coupling kit supplied by Biacore (GE Healthcare, Pittsburgh, PA, USA). Unreacted portions on the biosensor surface were blocked with ethanolamine. Then, the anti-CD40 antibody of the present application and two benchmark antibodies (BM1 (dacetuzumab, Genentech Inc., also referred to CD40-BM1, prepared in-house; the heavy and light chain amino acid sequences are set forth in SEQ ID NOs: 40 and 41, respectively) and BM2 (selicrelumab, Abgenix Inc., also referred to CD40-BM2, prepared in-house; the heavy and light chain amino acid sequences are set forth in SEQ ID NOS: 42 and 43, respectively)) at a concentration of 66.67 nM were directed through the chip at a flow rate of 10 μL/min. Then, serially diluted recombinant human CD40-his (Acro biosystems, Cat. No. CD0-H5228, serially 2-fold diluted from 80 nM in HBS-EP^+ buffer (supplied by Biacore)) or cynomolgus monkey CD40-his protein (Acro biosystems, Cat. No. CD0-C52H6, serially 2-fold diluted from 80 nM in HBS-EP^+ buffer (supplied by Biacore)) was directed through the chip at a flow rate of 30 μL/min. The antigen-antibody binding kinetics was tracked for 2 min and the dissociation kinetics was tracked for 10 min. The association and dissociation curves were fitted to a 1:1 Langmuir binding model using BIAcore evaluation software. KD, Ka, and Kd values were determined.

[2] = tested on: Cynomolgus monkey CD40-his; assay: as above; settings: for Kd: dissociation rate
Source text: as §1, §2

[3] = molecular target: T1, Human CD40-his; assay: Octet kinetics of humanized C1H1 antibodies; format: binding; settings: Table 3, Octet
Description: After six days of culture in a shake flask, the cell supernatant containing the humanized antibodies huC1H1-V1 to huC1H1-V4 was harvested and the binding affinity of the antibodies to human CD40 was determined on an Octet system (Fortebio, Octet RED 96) according to the following procedures. Briefly, an anti-human IgG Fc capture (AHC) biosensor (from ForteBio) was pre-soaked in a 10 mM glycine solution (pH 1.5) for 3 s, and then soaked in a running buffer (PBST containing 0.5% w/v of BSA) for 3 s. The pre-soaking and soaking procedures were repeated 3 times. Then, the sensor was soaked in the cell supernatant containing the humanized anti-CD40 antibody, chimeric antibody C1H1 dissolved in HBS-EP^+ buffer at a concentration of 5 μg/mL, or the benchmark dissolved in HBS-EP^+ buffer at a concentration of 5 μg/mL for 120 s, and then soaked in the running buffer for 5 min. The new baseline was run in the running buffer for 180 s. The sensor was then soaked for 120 s in human CD40-his protein (Acro biosystems, Cat. No. CD0-H5228) 2-fold serially diluted from 40 nM in the running buffer and for 10 min in the running buffer […]. Finally, the sensor was pre-soaked in a 10 mM glycine solution (pH 1.5) for 3 s, and then soaked in the running buffer for 3 s. The pre-soaking and soaking procedures were repeated 3 times. […]

[4] = tested on: human B-cell lymphoma Ramos cells; assay: Efficacy of anti-CD40 antibody and anlotinib, Ramos subcutaneous xenograft mouse model; format: in vivo
Description: Human B-cell lymphoma Ramos cells (purchased from the Cell Bank of the Chinese Academy of Sciences) were cultured in an RPMI1640 medium containing 10% of fetal bovine serum and penicillin-streptomycin. The cells were inoculated in a 37° C./5% CO2 incubator until the logarithmic growth phase and collected for grafting.
The mice used in this study were NOD-Scid mice (purchased from Shanghai Lingchang Biotechnology Co., Ltd.) aged about 6 weeks and bred in specific pathogen-free conditions in 12/12-hour light/dark cycles. The health status of the animals was monitored daily.
Each mouse was inoculated subcutaneously with 1×10^7 Ramos cells. When the tumor grew to 80-100 mm^3, the mice were divided into groups of 10 according to the tumor volume. The administration regimen is shown in Table 10, with the first dosing day designated as DO. Antibody huC1H1-V2 and IgG2 (Biointron, Cat. No. B107803) were both formulated to desired concentrations with normal saline, and anlotinib dihydrochloride was formulated at desired concentrations with distilled water. At the end of study (D14), the animals were sacrificed by CO2 anesthesia and dissected to give the tumors. The tumors were photographed.
The tumor diameters were measured twice weekly with a vernier caliper. Tumor volume (V)=½×a×b^2, wherein a and b denote length and width, respectively; T/C (%)=(T−T0)/(C−C0)×100, wherein T and C refer to the tumor volumes of the treatment group and the IgG2 control group on day 14, respectively, and TO and C0 refer to the tumor volumes of the treatment group and IgG2 control group on day 0, respectively; the tumor growth inhibition % (TGI %)=100−T/C (%). When the tumor regressed, the tumor growth inhibition % (TGI %)=100−(T−T0)/T0×100. If the tumor volume was smaller than the initial volume, i.e., T<T0 or C<C0, the outcome was defined as partial regression (PR); if the tumors completely disappeared, i.e., the outcome was defined as complete regression (CR).

[5] = Table 2, Biacore, association rate
[6] = Table 5, Biacore, purified antibodies

T1 sequence (P25942 21-277): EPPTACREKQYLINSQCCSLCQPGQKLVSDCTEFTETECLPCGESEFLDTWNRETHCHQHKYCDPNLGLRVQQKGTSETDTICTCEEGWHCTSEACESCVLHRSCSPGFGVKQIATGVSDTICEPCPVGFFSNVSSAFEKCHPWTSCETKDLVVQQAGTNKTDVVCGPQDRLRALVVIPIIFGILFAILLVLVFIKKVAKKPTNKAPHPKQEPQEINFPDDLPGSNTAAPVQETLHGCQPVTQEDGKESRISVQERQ

Ka [1, 5] [M⁻¹ s⁻¹]	Kd ([1]; Table 2, Biacore) [s⁻¹]	Kd ([1]; Table 5, Biacore) [s⁻¹]	Ka [1, 6] [M⁻¹ s⁻¹]	Ka [2, 5] [M⁻¹ s⁻¹]	Kd ([2]; Table 2, Biacore) [s⁻¹]	Kd ([2]; Table 5, Biacore) [s⁻¹]	Ka [2, 6] [M⁻¹ s⁻¹]	Kd ([3]; dissociation rate) [s⁻¹]	Ka ([3]; humanized antibodies in cell supernatant, chimeric and benchmark 5 μg/mL) [M⁻¹ s⁻¹]	Compound	Mean tumor volume (mean ± SD) D 0 ([4]; baseline, huC1H1-V2 0.5 mg/kg i.p. once every 2 days × 8, anlotinib dihydrochloride 1 mg/kg intragastric daily × 15) [mm^3]	Mean tumor volume (mean ± SD) D 14 ([4]; huC1H1-V2 0.5 mg/kg i.p. once every 2 days × 8, anlotinib dihydrochloride 1 mg/kg intragastric daily × 15) [mm^3]	TGI D 14 (tumor growth inhibition rate) ([4]; huC1H1-V2 0.5 mg/kg i.p., anlotinib dihydrochloride 1 mg/kg intragastric) [%]	Tolerability (symptoms such as weight loss) ([4]; huC1H1-V2 0.5 mg/kg i.p., anlotinib dihydrochloride 1 mg/kg intragastric, tumor-bearing mice)	T/C D 14 ([4]; vs IgG2 group, huC1H1-V2 0.5 mg/kg i.p., anlotinib dihydrochloride 1 mg/kg intragastric) [%]
739000	0.006556	0.007562	803000	623000	0.006164	0.007397	764000			BM1: benchmark antibody dacetuzumab, Genentech Inc., prepared in-house; heavy and light chain SEQ ID NOs: 40 and 41 [reference compound]					
		0.001616	206000			0.001508	173000	0.000979	874000	BM2: benchmark antibody selicrelumab, Abgenix Inc., prepared in-house; heavy and light chain SEQ ID NOs: 42 and 43 [reference compound]					
										COc1cc2c(Oc3ccc4[nH]c(C)cc4c3F)ccnc2cc1OCC1(N)CC1 [anlotinib dihydrochloride, 1-[[[4-(4-fluoro-2-methyl-1H-indol-5-yl)oxy-6-methoxyquinolin-7-yl]oxy]methyl]cyclopropylamine, reference compound]	85.3 ± 3.8	1602.8 ± 137.1	56	well tolerated	44

— patent US20240398942A1, “USE OF ANTI-CD40 ANTIBODY” (CHIA TAI TIANQING PHARMACEUTICAL GROUP CO., LTD., priority 2021, published 2024)
